Laboratory results as given in the NIST ThermoML archive (doi:10.1021/je400783h).
Numbers after ± are expanded uncertainties.

Settings: for surface tension liquid-gas: Drop volume; for viscosity / speed of sound / mass density / vapor or sublimation pressure: Liquid; for viscosity: Capillary tube (Ostwald / Ubbelohde) method; for speed of sound: Pulse-echo method; for vapor or sublimation pressure: Ebulliometric method (Recirculating still)

Structure (SMILES): OCC1CCCO1 (stereo not given) [2-tetrahydrofurylmethanol]
- surface tension liquid-gas (278.15 K): 39.54 ± 0.28 mN/m
- viscosity (278.15 K, 101.33 kPa): 10.39 ± 0.22 mPa·s
- speed of sound (278.15 K, 101.33 kPa): 1556.4 ± 1.3 m/s
- mass density (278.15 K, 101.33 kPa, Vibrating tube method): 1067.07 ± 0.29 kg/m3
- surface tension liquid-gas (280.65 K): 39.29 ± 0.28 mN/m
- viscosity (280.65 K, 101.33 kPa): 9.487 ± 0.2 mPa·s
- speed of sound (280.65 K, 101.33 kPa): 1547.6 ± 1.2 m/s
- mass density (280.65 K, 101.33 kPa, Vibrating tube method): 1064.96 ± 0.29 kg/m3
- surface tension liquid-gas (283.15 K): 39.03 ± 0.28 mN/m
- mass density (283.15 K, 100 kPa): 1062.84 ± 0.45 kg/m3
- viscosity (283.15 K, 101.33 kPa): 8.684 ± 0.18 mPa·s
- speed of sound (283.15 K, 101.33 kPa): 1538.6 ± 1.2 m/s
- mass density (283.15 K, 101.33 kPa, Vibrating tube method): 1062.84 ± 0.29 kg/m3
- mass density (283.15 K, 2500 kPa): 1064.37 ± 0.48 kg/m3
- mass density (283.15 K, 5000 kPa): 1065.68 ± 0.5 kg/m3
- mass density (283.15 K, 7500 kPa): 1066.97 ± 0.53 kg/m3
- mass density (283.15 K, 10000 kPa): 1068.24 ± 0.56 kg/m3
- mass density (283.15 K, 20000 kPa): 1073.16 ± 0.69 kg/m3
- mass density (283.15 K, 30000 kPa): 1077.84 ± 0.84 kg/m3
- mass density (283.15 K, 40000 kPa): 1082.28 ± 0.99 kg/m3
- mass density (283.15 K, 50000 kPa): 1086.55 ± 1.2 kg/m3
- mass density (283.15 K, 60000 kPa): 1090.57 ± 1.3 kg/m3
- surface tension liquid-gas (285.65 K): 38.78 ± 0.27 mN/m
- viscosity (285.65 K, 101.33 kPa): 7.971 ± 0.17 mPa·s
- speed of sound (285.65 K, 101.33 kPa): 1529.7 ± 1.2 m/s
- mass density (285.65 K, 101.33 kPa, Vibrating tube method): 1060.72 ± 0.29 kg/m3
- surface tension liquid-gas (288.15 K): 38.53 ± 0.27 mN/m
- mass density (288.15 K, 100 kPa): 1058.59 ± 0.44 kg/m3
- viscosity (288.15 K, 101.33 kPa): 7.335 ± 0.15 mPa·s
- speed of sound (288.15 K, 101.33 kPa): 1520.8 ± 1.2 m/s
- mass density (288.15 K, 101.33 kPa, Vibrating tube method): 1058.59 ± 0.29 kg/m3
- mass density (288.15 K, 2500 kPa): 1060.15 ± 0.47 kg/m3
- mass density (288.15 K, 5000 kPa): 1061.47 ± 0.49 kg/m3
- mass density (288.15 K, 7500 kPa): 1062.8 ± 0.52 kg/m3
- mass density (288.15 K, 10000 kPa): 1064.09 ± 0.55 kg/m3
- mass density (288.15 K, 20000 kPa): 1069.11 ± 0.67 kg/m3
- mass density (288.15 K, 30000 kPa): 1073.88 ± 0.81 kg/m3
- mass density (288.15 K, 40000 kPa): 1078.41 ± 0.96 kg/m3
- mass density (288.15 K, 50000 kPa): 1082.72 ± 1.1 kg/m3
- mass density (288.15 K, 60000 kPa): 1086.83 ± 1.3 kg/m3
- surface tension liquid-gas (290.65 K): 38.27 ± 0.27 mN/m
- viscosity (290.65 K, 101.33 kPa): 6.765 ± 0.14 mPa·s
- speed of sound (290.65 K, 101.33 kPa): 1511.8 ± 1.2 m/s
- mass density (290.65 K, 101.33 kPa, Vibrating tube method): 1056.47 ± 0.29 kg/m3
- surface tension liquid-gas (293.15 K): 38.02 ± 0.27 mN/m
- mass density (293.15 K, 100 kPa): 1054.34 ± 0.43 kg/m3
- viscosity (293.15 K, 101.33 kPa): 6.254 ± 0.13 mPa·s
- speed of sound (293.15 K, 101.33 kPa): 1503 ± 1.2 m/s
- mass density (293.15 K, 101.33 kPa, Vibrating tube method): 1054.34 ± 0.28 kg/m3
- mass density (293.15 K, 2500 kPa): 1055.94 ± 0.46 kg/m3
- mass density (293.15 K, 5000 kPa): 1057.3 ± 0.48 kg/m3
- mass density (293.15 K, 7500 kPa): 1058.64 ± 0.51 kg/m3
- mass density (293.15 K, 10000 kPa): 1060 ± 0.53 kg/m3
- mass density (293.15 K, 20000 kPa): 1065.1 ± 0.65 kg/m3
- mass density (293.15 K, 30000 kPa): 1069.97 ± 0.79 kg/m3
- mass density (293.15 K, 40000 kPa): 1074.62 ± 0.93 kg/m3
- mass density (293.15 K, 50000 kPa): 1078.97 ± 1.1 kg/m3
- mass density (293.15 K, 60000 kPa): 1083.18 ± 1.3 kg/m3
- surface tension liquid-gas (295.65 K): 37.77 ± 0.27 mN/m
- viscosity (295.65 K, 101.33 kPa): 5.795 ± 0.12 mPa·s
- speed of sound (295.65 K, 101.33 kPa): 1494.2 ± 1.2 m/s
- mass density (295.65 K, 101.33 kPa, Vibrating tube method): 1052.2 ± 0.28 kg/m3
- surface tension liquid-gas (298.15 K): 37.51 ± 0.27 mN/m
- mass density (298.15 K, 100 kPa): 1050.06 ± 0.43 kg/m3
- viscosity (298.15 K, 101.33 kPa): 5.381 ± 0.11 mPa·s
- speed of sound (298.15 K, 101.33 kPa): 1485.3 ± 1.2 m/s
- mass density (298.15 K, 101.33 kPa, Vibrating tube method): 1050.06 ± 0.28 kg/m3
- mass density (298.15 K, 2500 kPa): 1051.72 ± 0.45 kg/m3
- mass density (298.15 K, 5000 kPa): 1053.11 ± 0.47 kg/m3
- mass density (298.15 K, 7500 kPa): 1054.48 ± 0.49 kg/m3
- mass density (298.15 K, 10000 kPa): 1055.84 ± 0.52 kg/m3
- mass density (298.15 K, 20000 kPa): 1061.08 ± 0.63 kg/m3
- mass density (298.15 K, 30000 kPa): 1066.04 ± 0.76 kg/m3
- mass density (298.15 K, 40000 kPa): 1070.75 ± 0.9 kg/m3
- mass density (298.15 K, 50000 kPa): 1075.22 ± 1.1 kg/m3
- mass density (298.15 K, 60000 kPa): 1079.49 ± 1.2 kg/m3
- surface tension liquid-gas (300.65 K): 37.26 ± 0.27 mN/m
- viscosity (300.65 K, 101.33 kPa): 5.006 ± 0.11 mPa·s
- speed of sound (300.65 K, 101.33 kPa): 1476.5 ± 1.2 m/s
- mass density (300.65 K, 101.33 kPa, Vibrating tube method): 1047.92 ± 0.28 kg/m3
- surface tension liquid-gas (303.15 K): 37.01 ± 0.27 mN/m
- mass density (303.15 K, 100 kPa): 1045.78 ± 0.42 kg/m3
- viscosity (303.15 K, 101.33 kPa): 4.667 ± 0.099 mPa·s
- speed of sound (303.15 K, 101.33 kPa): 1467.8 ± 1.2 m/s
- mass density (303.15 K, 101.33 kPa, Vibrating tube method): 1045.78 ± 0.28 kg/m3
- mass density (303.15 K, 2500 kPa): 1047.47 ± 0.44 kg/m3
- mass density (303.15 K, 5000 kPa): 1048.9 ± 0.46 kg/m3
- mass density (303.15 K, 7500 kPa): 1050.31 ± 0.48 kg/m3
- mass density (303.15 K, 10000 kPa): 1051.69 ± 0.51 kg/m3
- mass density (303.15 K, 20000 kPa): 1057.06 ± 0.61 kg/m3
- mass density (303.15 K, 30000 kPa): 1062.11 ± 0.73 kg/m3
- mass density (303.15 K, 40000 kPa): 1066.94 ± 0.87 kg/m3
- mass density (303.15 K, 50000 kPa): 1071.49 ± 1 kg/m3
- mass density (303.15 K, 60000 kPa): 1075.79 ± 1.2 kg/m3
- vapor or sublimation pressure (303.15 K): 0.09 ± 0.1 kPa
- surface tension liquid-gas (305.65 K): 36.75 ± 0.26 mN/m
- viscosity (305.65 K, 101.33 kPa): 4.359 ± 0.092 mPa·s
- speed of sound (305.65 K, 101.33 kPa): 1459 ± 1.2 m/s
- mass density (305.65 K, 101.33 kPa, Vibrating tube method): 1043.63 ± 0.28 kg/m3
- surface tension liquid-gas (308.15 K): 36.5 ± 0.26 mN/m
- mass density (308.15 K, 100 kPa): 1041.48 ± 0.41 kg/m3
- viscosity (308.15 K, 101.33 kPa): 4.078 ± 0.087 mPa·s
- speed of sound (308.15 K, 101.33 kPa): 1450.3 ± 1.2 m/s
- mass density (308.15 K, 101.33 kPa, Vibrating tube method): 1041.48 ± 0.28 kg/m3
- mass density (308.15 K, 2500 kPa): 1043.19 ± 0.43 kg/m3
- mass density (308.15 K, 5000 kPa): 1044.66 ± 0.45 kg/m3
- mass density (308.15 K, 7500 kPa): 1046.09 ± 0.47 kg/m3
- mass density (308.15 K, 10000 kPa): 1047.48 ± 0.49 kg/m3
- mass density (308.15 K, 20000 kPa): 1052.96 ± 0.59 kg/m3
- mass density (308.15 K, 30000 kPa): 1058.12 ± 0.71 kg/m3
- mass density (308.15 K, 40000 kPa): 1063.05 ± 0.84 kg/m3
- mass density (308.15 K, 50000 kPa): 1067.61 ± 0.98 kg/m3
- mass density (308.15 K, 60000 kPa): 1072.09 ± 1.1 kg/m3
- vapor or sublimation pressure (308.15 K): 0.15 ± 0.1 kPa
- surface tension liquid-gas (310.65 K): 36.25 ± 0.26 mN/m
- viscosity (310.65 K, 101.33 kPa): 3.822 ± 0.081 mPa·s
- speed of sound (310.65 K, 101.33 kPa): 1441.6 ± 1.2 m/s
- mass density (310.65 K, 101.33 kPa, Vibrating tube method): 1039.33 ± 0.27 kg/m3
- surface tension liquid-gas (313.15 K): 35.99 ± 0.26 mN/m
- mass density (313.15 K, 100 kPa): 1037.17 ± 0.4 kg/m3
- viscosity (313.15 K, 101.33 kPa): 3.588 ± 0.076 mPa·s
- speed of sound (313.15 K, 101.33 kPa): 1432.8 ± 1.2 m/s
- mass density (313.15 K, 101.33 kPa, Vibrating tube method): 1037.17 ± 0.27 kg/m3
- mass density (313.15 K, 2500 kPa): 1038.92 ± 0.42 kg/m3
- mass density (313.15 K, 5000 kPa): 1040.41 ± 0.44 kg/m3
